pIC50: −log10 of the molar value. Some results are limits rather than exact numbers.

63 molecules from ChEMBL document CHEMBL5393456, “Dichlorophenol hsd17b13 inhibitors and uses thereof” (2022) can be followed below.

In this test the target is T1, 17-beta-hydroxysteroid dehydrogenase 13 (Homo sapiens, UniProt Q7Z5P4).
T1 sequence (Q7Z5P4 whole entry): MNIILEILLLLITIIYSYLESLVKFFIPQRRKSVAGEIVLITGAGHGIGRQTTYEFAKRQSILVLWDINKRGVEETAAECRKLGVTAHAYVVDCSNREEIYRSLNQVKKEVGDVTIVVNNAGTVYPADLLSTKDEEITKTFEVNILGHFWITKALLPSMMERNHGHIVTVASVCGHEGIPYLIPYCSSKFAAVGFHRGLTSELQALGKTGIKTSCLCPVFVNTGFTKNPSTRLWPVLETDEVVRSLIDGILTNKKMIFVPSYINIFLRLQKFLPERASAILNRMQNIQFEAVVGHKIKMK
The test is described as follows: Inhibition of His-tagged HSD17B13 (unknown origin) expressed in Escherichia coli using estradiol as substrate incubated for 2 hrs and measured by LC/MS estrone detection assay.
In general, pIC50 refers to the IC50 on a negative log10 scale, so that one unit is a factor of ten. A low value points to a large IC50. As to `Cc1nc2cccc(NC(=O)c3cc(Cl)c(O)c(Cl)c3)c2c(=O)n1Cc1ccccc1OC(F)(F)F`, the pIC50 was no less than 7.00. The molecule `O=C(Nc1cccc2ncn(Cc3n[nH]c4ccccc34)c(=O)c12)c1cc(Cl)c(O)c(Cl)c1` gave a pIC50 of no less than 7.00. Then `Cc1ccc(NC(=O)c2cc(Cl)c(O)c(Cl)c2)c2c(=O)n(Cc3ncccc3C(F)(F)F)c(C)nc12`, with no less than 7.00; and `[2H]C([2H])([2H])c1nc2c(C)ccc(NC(=O)c3cc(Cl)c(O)c(Cl)c3)c2c(=O)n1Cc1ccccc1OC(F)(F)F`, with no less than 7.00; and `Cc1nc2nccc(NC(=O)c3cc(Cl)c(O)c(Cl)c3)c2c(=O)n1Cc1ccccc1OC(F)(F)F`, with no less than 7.00. For the molecule `N#Cc1ccccc1Cn1cnc2cccc(NC(=O)c3cc(Cl)c(O)c(Cl)c3)c2c1=O`, the pIC50 is no less than 7.00.

Regarding `Cn1nc(CNC(=O)c2ncsc2NC(=O)c2cc(Cl)c(O)c(Cl)c2)c2ccccc21`, the pIC50 was no less than 7.00.

On to `O=C(Nc1cccc2ncn(Cc3ncccc3Cl)c(=O)c12)c1cc(Cl)c(O)c(Cl)c1`, for which the pIC50 is no less than 7.00.

On to `Cc1ccc(NC(=O)c2cc(Cl)c(O)c(Cl)c2)c2c(=O)n(Cc3ccccc3C(F)(F)F)c(C)nc12`, for which the pIC50 was no less than 7.00. In turn, `O=C(Nc1cccc2ncn(Cc3cccnc3C(F)(F)F)c(=O)c12)c1cc(Cl)c(O)c(Cl)c1` had a pIC50 of no less than 7.00. In turn, `O=C(Nc1cccc2ncn(Cc3ncccc3C(F)(F)F)c(=O)c12)c1cc(Cl)c(O)c(Cl)c1` gave a pIC50 of no less than 7.00. In turn, `O=C(Nc1cccc2ncn(Cc3ccn(-c4ccccc4F)n3)c(=O)c12)c1cc(Cl)c(O)c(Cl)c1` had a pIC50 of no less than 7.00.

As to `[2H]C([2H])([2H])c1nc2c(C)ccc(NC(=O)c3cc(Cl)c(O)c(Cl)n3)c2c(=O)n1Cc1ccccc1OC(F)(F)F`, the pIC50 is no less than 7.00. `O=C(Nc1cccc2ncn(Cc3cccc(C(F)(F)F)c3)c(=O)c12)c1cc(Cl)c(O)c(Cl)c1`: the pIC50 is no less than 7.00. For `Cn1c(=O)n(Cc2ccccc2OC(F)(F)F)c(=O)c2c(NC(=O)c3cc(Cl)c(O)c(Cl)c3)cccc21`, the negative logarithm of the IC50 (pIC50) was no less than 7.00. `[2H]C([2H])([2H])c1nc2c(C)ccc(NC(=O)c3cc(Cl)c(O)c(Cl)c3)c2c(=O)n1Cc1ccccc1C(F)(F)F` showed a pIC50 of no less than 7.00. In turn, `Cn1nc(Cn2cnc3cccc(NC(=O)c4cc(Cl)c(O)c(Cl)c4)c3c2=O)c2ccccc21` showed a pIC50 of no less than 7.00. Then `O=C(NCc1ccccc1OC(F)(F)F)C1CCCN1C(=O)c1cc(Cl)c(O)c(Cl)c1` (stereo not drawn), with less than 5.00. Take `O=C(Nc1scnc1C(=O)NCc1ccccc1C(F)(F)F)c1cc(Cl)c(O)c(Cl)c1`: the pIC50 was no less than 7.00.

Regarding `CN(C)CCOc1ccc(NC(=O)c2cc(Cl)c(O)c(Cl)c2)c(C(=O)NCc2ccccc2OC(F)(F)F)c1`, the negative-log IC50 (pIC50) is less than 5.00.

As to `Cc1ccc(NC(=O)c2cc(Cl)c(O)c(Cl)n2)c2c(=O)n(Cc3ccccc3OC(F)(F)F)c(C(F)F)nc12`, the pIC50 is no less than 7.00. Then `C[C@@H](c1cccc(F)c1)n1cnc2cccc(NC(=O)c3cc(Cl)c(O)c(Cl)c3)c2c1=O`, with no less than 7.00; and `O=C(Nc1cccc2ncn(Cc3ccccc3N3CCOCC3)c(=O)c12)c1cc(Cl)c(O)c(Cl)c1`, with no less than 7.00; and `NS(=O)(=O)c1ccccc1Cn1cnc2cccc(NC(=O)c3cc(Cl)c(O)c(Cl)c3)c2c1=O`, with less than 5.00. The figure for `Cc1nc2c(F)ccc(NC(=O)c3cc(Cl)c(O)c(Cl)n3)c2c(=O)n1Cc1ccccc1OC(F)(F)F` is no less than 7.00; for `O=C(Nc1scnc1C(=O)NCc1ccccc1OC(F)(F)F)c1cc(Cl)c(O)c(Cl)n1` it is no less than 7.00; for `O=C(NCc1ccccc1OC(F)(F)F)C1CCCN1C(=O)c1cc(Cl)c(O)c(Cl)n1` (stereo not drawn) it is less than 5.00. Turning to `Cc1ccc(NC(=O)c2cc(Cl)c(O)c(Cl)c2)c2c(=O)n([C@@H]3CC[C@H]3c3ccccc3)c(C)nc12`, the pIC50 is no less than 7.00. The figure for `O=C(Nc1ccc(Cl)c2ncn(Cc3ccccc3OC(F)(F)F)c(=O)c12)c1cc(Cl)c(O)c(Cl)c1` is no less than 7.00; for `Cc1ccc(NC(=O)c2cc(Cl)c(O)c(Cl)c2)c2c(=O)n(Cc3ccccc3C(F)(F)F)c(CF)nc12` it is no less than 7.00.

With `O=C(Nc1scnc1C(=O)NCc1ccccc1OC(F)(F)F)c1cc(Cl)c(O)c(Cl)c1`, the pIC50 is no less than 7.00. Then `O=C(Nc1cccc2ncn(Cc3ccccc3-c3ccccn3)c(=O)c12)c1cc(Cl)c(O)c(Cl)c1`, with no less than 6.30; and `Cc1nsc(NC(=O)c2cc(Cl)c(O)c(Cl)c2)c1C(=O)N[C@@H](C)c1ccccc1F`, with no less than 7.00; and `Cc1nc2c(F)ccc(NC(=O)c3cc(Cl)c(O)c(Cl)c3)c2c(=O)n1Cc1ccccc1OC(F)(F)F`, with no less than 7.00. In turn, `Cc1ccc(NC(=O)c2cc(Cl)c(O)c(Cl)c2)c2c(=O)n(Cc3ccccc3OC(F)(F)F)c(C(F)F)nc12` showed a pIC50 of no less than 7.00. Regarding `C[C@@H](c1cccc(F)c1)n1cnc2cccc(NC(=O)c3cc(Cl)c(O)c(Cl)n3)c2c1=O`, the pIC50 is no less than 7.00.

Regarding `O=C(Nc1cccc2ncn(Cc3ccccc3C(F)(F)F)c(=O)c12)c1cc(Cl)c(O)c(Cl)n1`, the pIC50 was no less than 7.00.

For `C[C@H](c1cccc(F)c1)n1cnc2cccc(NC(=O)c3cc(Cl)c(O)c(Cl)c3)c2c1=O`, the pIC50 was no less than 7.00.

Turning to `O=C(Nc1cccc2ncn(C3(c4ccccc4F)CC3)c(=O)c12)c1cc(Cl)c(O)c(Cl)c1`, the pIC50 is no less than 7.00. With `Cc1nc2c(F)ccc(NC(=O)c3cc(Cl)c(O)c(Cl)c3)c2c(=O)n1Cc1ccccc1C(F)(F)F`, the pIC50 is no less than 7.00. Consider `O=C(Nc1cccc2ncn(Cc3cccc(F)c3)c(=O)c12)c1cc(Cl)c(O)c(Cl)n1`, for which the negative logarithm of the IC50 (pIC50) was no less than 7.00. On to `O=C(Nc1cc(Cl)sc1C(=O)NCCc1ccccc1OC(F)(F)F)c1cc(Cl)c(O)c(Cl)c1`, for which the pIC50 was no less than 6.30. Then `Cc1ccc(NC(=O)c2cc(Cl)c(O)c(Cl)n2)c2c(=O)n(Cc3ccccc3OC(F)(F)F)c(C)nc12`, with no less than 7.00; and `O=C(Nc1scnc1C(=O)NCc1cccc(F)c1)c1cc(Cl)c(O)c(Cl)c1`, with no less than 7.00. Molecule `Cc1nc2c(F)ccc(NC(=O)c3cc(Cl)c(O)c(Cl)c3)c2c(=O)n1Cc1nn(C)c2ccccc12` gave a pIC50 of no less than 7.00. `O=C(N[C@H]1CCCC[C@@H]1C(=O)NCc1ccccc1OC(F)(F)F)c1cc(Cl)c(O)c(Cl)n1` showed a pIC50 of less than 5.00. The molecule `[2H]C([2H])(c1ccccc1C(F)(F)F)n1c(C)nc2c(C)ccc(NC(=O)c3cc(Cl)c(O)c(Cl)c3)c2c1=O` had a pIC50 of no less than 7.00. For the molecule `O=C(Nc1cccc2ncn(Cc3ccc(C(F)(F)F)cc3)c(=O)c12)c1cc(Cl)c(O)c(Cl)c1`, the pIC50 was no less than 7.00. `O=C(Nc1ccc(F)c2ncn(Cc3ccccc3C(F)(F)F)c(=O)c12)c1cc(Cl)c(O)c(Cl)c1` gave a pIC50 of no less than 7.00.

The molecule `Cc1ccc(NC(=O)c2cc(Cl)c(O)c(Cl)c2)c2c(=O)n(Cc3ccccc3OC(F)(F)F)c(C)nc12` had a pIC50 of no less than 7.00. Molecule `Cc1nc2c(F)ccc(NC(=O)c3cc(Cl)c(O)c(Cl)c3)c2c(=O)n1Cc1ncccc1C(F)(F)F` had a pIC50 of no less than 7.00. The molecule `O=C(Nc1cccc2ncn(Cc3cccc(OC(F)(F)F)c3)c(=O)c12)c1cc(Cl)c(O)c(Cl)c1` gave a pIC50 of no less than 7.00. For `O=C(Nc1cccc2ncn(C(c3ccccc3)c3ccccc3)c(=O)c12)c1cc(Cl)c(O)c(Cl)c1`, the pIC50 was no less than 7.00. For `Cc1nc2c(Cl)ccc(NC(=O)c3cc(Cl)c(O)c(Cl)c3)c2c(=O)n1Cc1ccccc1C(F)(F)F`, the pIC50 was no less than 7.00. `O=C(Nc1cccc2ncn(Cc3ccccc3C(F)(F)F)c(=O)c12)c1cc(Cl)c(O)c(Cl)c1` gave a pIC50 of no less than 7.00. Regarding `COc1ccccc1CCNC(=O)c1sccc1NC(=O)c1cc(Cl)c(O)c(Cl)c1`, the pIC50 was no less than 7.00. `O=C(Nc1cccc2ncn(Cc3ccccc3OC(F)(F)F)c(=O)c12)c1cc(Cl)c(O)c(Cl)c1`: the negative logarithm of the IC50 (pIC50) is no less than 7.00.

On to `O=C(Nc1ccc(F)c2ncn(Cc3ccccc3C(F)(F)F)c(=O)c12)c1cc(Cl)c(O)c(Cl)n1`, for which the pIC50 was no less than 7.00. `O=C(Nc1cccc2ncn(Cc3ccccc3F)c(=O)c12)c1cc(Cl)c(O)c(Cl)n1` showed a pIC50 of no less than 7.00. `Cc1ccc(NC(=O)c2cc(Cl)c(O)c(Cl)c2)c2c(=O)n(Cc3ccccc3OC(F)(F)F)cnc12` had a pIC50 of no less than 7.00. For the molecule `Cc1ccc(NC(=O)c2cc(Cl)c(O)c(Cl)c2)c2c(=O)n(Cc3ccccc3C(F)(F)F)c(C(F)F)nc12`, the pIC50 was no less than 7.00. As for `O=C(Nc1cc(Cl)sc1C(=O)NCc1ccccc1OC(F)(F)F)c1cc(Cl)c(O)c(Cl)c1`, the pIC50 is no less than 7.00. The molecule `O=C(Nc1ccc(F)c2ncn(Cc3ccccc3OC(F)(F)F)c(=O)c12)c1cc(Cl)c(O)c(Cl)c1` had a pIC50 of no less than 7.00.
